# Test results published in patent US10995068B2, “Synthetic sphingolipid-like molecules, drugs, methods of their synthesis and methods of treatment” (The Regents of the University of California, priority 2015, dated 2021).
# Several values for one entry are separate records, joined by “and”; a condition that tells them apart may be missing. Equal entries are not always repeated. Where two headings read alike, the source gives them in different places.
# How the values were obtained:
# [1] = tested on: DU145 prostate cancer cells; experiment: Cell Titer Glo proliferation assay in DU145; type: cell-based, human; conditions: Mean ± SEM, n ≥ 3, read-out: IC50 values in prostate cancer cell lines, DU145
# Method: (§1) Previously presented compounds 1-4 (FIG. 23), compounds 5-8 (FIG. 28), and control compound FTY720 (FIG. 2) were used to treat the well-established PC3 and DU145 prostate cancer lines (FIG. 29 and Table 1). A Cell Titer Glo assay was performed to measure proliferation of the cancer lines.
# (§2) Cell culture studies: Sup-B15 cells are maintained at 2-3 million/mL in RPMI 1640 (Mediatech) supplemented with 10% fetal calf serum (FCS, Sigma-Aldrich), 10 mM Hepes (Mediatech), 55 μM β-mercaptoethanol (Sigma-Aldrich), 2 mM L-glutamine (Mediatech), and antibiotics. All adherent cells are maintained at 70-80% confluence. Cell are cultured in the following media: PC3 & A549, Ham's F12K (Corning Cell Gro) supplemented with 10% FCS and antibiotics; DU145 cells, MEM (Corning Cell Gro) supplemented with 10% FCS, 1 mM sodium pyruvate (Mediatech), and antibiotics; SW620 & MDA-MB-231, DMEM (Corning Cell Gro) with 10% FCS, 1 mM sodium pyruvate (Mediatech), and antibiotics; Panc-1 cells, DMEM (Corning Cell Gro) supplemented with 10% FCS and antibiotics. All of the above cell lines are available from the ATCC.
# (§3) Viability assays: Cell Titer Glo assays (Cell Titer Glo Luminescent Cell Viability Assay kit, cat #G7571, Promega Corporation) are performed in clear bottom 96-well black cell culture plates (cat #655090, Greiner Bio-One, NC, USA). After plating at 1,000 cells/well in volume of 100 μl, cells are left undisturbed for at least 24 h before drug addition. After 72 h, cells are prepared for analysis by adding 10 μl of 0.1% Triton-X100 in PBS with shaking for 1 min at room temperature (RT). Cell Titer-Glo cell lysis reagent (20 μl) is then added followed by 1 min of shaking and a 10 min incubation in the dark at RT. Luminescence is detected using an IVIS imaging system (IVIS Lumina II, Perkin Elmer, USA). […] IC50s are determined using GraphPad Prism (GraphPad Software, Inc, La Jolla, Calif.). SupB-15 viability was determined by flow cytometry. Cell Titer Glo assays were performed with the other cell lines.
# [2] = tested on: PC3 prostate cancer cells; experiment: Cell Titer Glo proliferation assay in PC3; type: cell-based, human; conditions: Cell Titer Glo, 72 h, Mean ± SEM, n ≥ 3, read-out: IC50 values in prostate cancer cell lines, PC3
# Method: as §1, §2, §3
# [3] = tested on: CD98 (4F2hc, SLC3A2); experiment: Surface CD98 nutrient transporter down-regulation by flow cytometry; type: cell-based, murine; conditions: FL5.12 cells; for % CD98 down-regulation: surface CD98 at 3 h, flow cytometry, mean ± SEM, n ≥3
# Text: (§4) In an exemplified study, nutrient transporter down-regulation was monitored by quantifying surface levels of the amino acid transporter-associated protein, CD98, by flow cytometry. Vacuolation was scored in a range from 0 to […], as determined by a vacuolation assay described in greater detail in the Materials and Methods section below.
# (§5) Cell culture studies: FL5.12 cells (murine hematopoetic cells originally obtained from Craig Thompson, Memorial Sloan Kettering Cancer Center) were maintained at 0.1-0.5 million/ml in RPMI 1640 (Mediatech) supplemented with 10% fetal calf serum (FCS, Sigma-Aldrich), 10 mM Hepes (Mediatech), 500 pg/ml recombinant IL-3 (cat #575502, Biolegend), 55 μM β-mercaptoethanol (Sigma-Aldrich), 2 mM L-glutamine (Mediatech), and antibiotics. Cells were screened for Mycoplasma every 3 months using the Look-Out Mycoplasma PCR Detection kit (cat #MP0035, Sigma).
# Nutrient transporter expression: Surface CD98 (4F2hc, SLC3A2) expression was measured at 3 h using phycoerythrin (PE)-conjugated rat anti-mouse CD98 antibody (Biolegend, cat #128208); analysis was restricted to viable cells. PE conjugated Rat IgG2a, k (cat #400508, Biolegend) was used as an isotype control. For staining, 200,000 cells were pelleted, re-suspended in 100 μl FACS block (PBS with 10% FCS and 0.05% NaN3) containing 0.25 μL anti-CD98 antibody, incubated on ice for 30 min, washed twice with 1 ml FACS wash (PBS containing 2% FCS and 0.05% NaN3), and analyzed on a BD LSR II flow cytometer. Data was processed with FlowJo software (Treestar).
# [4] = tested on: FL5.12 cells; experiment: Vacuolation assay; type: cell-based, murine; set-up: key to Vacuolation score: 0-100 score: (3×%cat3+2×%cat2+1×%cat1)/3; cells graded 0-3 for vacuoles; conditions: for Vacuolation score / vacuolation (in words): FL5.12 cells; for Vacuolation score: 3 h in 2.5 μM compound except where otherwise indicated, mean ± SEM, n ≥3; for ability to induce vacuole formation: highest concentrations tested (30 μM); for vacuolation (in words): at any dose / highest dose tested
# Method: as §4
# Vacuolation assay: Cells were evaluated at 100× using brightfield microscopy and a Nikon TE2000-S fluorescence microscope equipped with DIC filters. Vacuolation was quantified after a 3 h incubation period in 2.5 μM compound except where otherwise indicated. To calculate a vacuolation score, vacuolation severity in at least 15 individual cells/experiment was assessed qualitatively. Scores were assigned to individual cells as follows: 0=no vacuoles, 1=very small vacuoles, 2=multiple well-defined vacuoles, 3=multiple large vacuoles. To calculate the vacuolation score associated with a compound, the following formula was used: vacuolation score=[(3×% cells in category 3)+(2×% cells in category 2)+(1×% cells in category 1)]/3.
# The score is divided by 3 so that a compound with 100% of its cells in category 3 would have a vacuolation score of 100. Three independent experiments were conducted and the vacuolation scores averaged to generate a mean+/−SEM. All cells were scored by one lab member after confirming that a blinded individual scored 5 compounds with similar results.
# [5] = tested on: murine hematopoietic cell line FL5.12; experiment: Viability of FL5.12 cells by vital dye exclusion; type: cell-based; conditions: for IC50: FL5.12 cells, 48 h, vital dye exclusion, n ≥3, read-out: IC50 (μM) [95% CI]
# Method: as §5
# IC50 values were calculated using GraphPad Prism (GraphPad Software, Inc, La Jolla, Calif.).
Compound,% CD98 down-regulation [3],Vacuolation score [4],IC50 [5],also measured
"CCCCCCCCc1ccc([C@@H]2CC(=O)N[C@H]2CO)cc1 [Compound 9, (4S,5R)-5-(hydroxymethyl)-4-(4-octylphenyl)Pyrrolidin-2-one]",,,,"IC50 ([1]; Homo sapiens, DU-145, 72 h): > 20 µM; IC50 ([2]; Homo sapiens): > 20 µM"
CCCCCCc1ccc(COC2CNC(CO)C2)cc1 (stereo not drawn) [Compound 111],30 ± 2%,0,2.7 µM,
"CCCCCCCCCCCCC/C=C/[C@@H](O)[C@@H](N)CO [Compound 106, sphingosine, reference compound]",48 ± 2%,57 ± 6,,concentration required to cause similar transporter loss ([3]; CD98 loss): 2.5 µM; IC50 ([5]; Mus musculus): 3.6 µM
CCCCCCCCCCc1ccc(COC2CNC(CO)C2)cc1 (stereo not drawn) [Compound 120],28 ± 1%,36 ± 5,3.6 µM,
CCCCC=Cc1ccc(COC2CNC(CO)C2)cc1 (stereo not drawn) [Compound 118],9 ± 3%,5 ± 2,5.7 µM,
CCCCCCCCCCCCCCc1ccc(COC2CNC(CO)C2)cc1 (stereo not drawn) [Compound 123],19 ± 1%,3 ± 3,5.7 µM,
CCCCCCCCc1ccc(COC2CC(CO)N(C(=N)N)C2)cc1 (stereo not drawn) [Compound 132],35 ± 1%,0,14.2 µM,ability to induce vacuole formation [4]: lost
CCCCCCCCc1ccc([C@@H]2CCN[C@H]2CO)cc1 [Compound 105],47% and 47 ± 3%,53 and 53 ± 3,1.7 µM,
CCCCC=Cc1ccc(COC2CNC(CO)C2)cc1 (stereo not drawn) [Compound 112],30 ± 4%,0,5.5 µM,
CCCCCCC=Cc1ccc(COC2CNC(CO)C2)cc1 (stereo not drawn) [Compound 113],64 ± 1%,27 ± 1,1.4 µM,
CCCCCCCCc1ccc(COC2CC(CO)N(C(C)=O)C2)cc1 (stereo not drawn) [Compound 131],37 ± 3%,1 ± 1,29.7 µM,"vacuolation (in words) [4]: no vacuolation activity; fold less potent than analog 102 ([5]; IC50, FL5.12 cells): 10 fold"
CCCCCCCCc1ccc([C@@H]2C[C@@H](CO)N[C@@H]2CO)cc1 [Compound 2],,,,IC50 ([1]; 72 h): 5.7 ± 0.4 µM; IC50 [2]: 6.1 ± 1 µM
CCCCCCC=Cc1ccc(C2CCNC2CO)cc1 (stereo not drawn) [Compound 125],58 ± 3%,84 ± 2,1.7 µM,
CCCCCCCCCCCCc1ccc(COC2CNC(CO)C2)cc1 (stereo not drawn) [Compound 121],14 ± 4%,30 ± 2,3.9 µM,
CCCCCCCCc1ccc([C@H]2CC(=O)N[C@H]2CO)cc1 [Compound 10],,,,IC50 ([1]; 72 h): > 20 µM; IC50 [2]: > 20 µM
CCCCCCCCc1ccc(C2CCNC2CO)cc1 (stereo not drawn) [Compound 8],,,,IC50 ([1]; 72 h): 5.4 ± 0.3 µM; IC50 [2]: 6.5 ± 0.3 µM

Compound,% CD98 down-regulation [3],Vacuolation score [4],IC50 [5],also measured
CCCCCCCCc1ccc(COC2CNC(CO)C2)cc1 (stereo not drawn) [Compound 103],48 ± 2%,47 ± 2,3 µM,
CCCCCCCCCCCCc1ccc(COC2CNC(CO)C2)cc1 (stereo not drawn) [Compound 114],13 ± 3%,3 ± 1,10.1 µM,
"CCCCCCCCCCCCCCC[C@@H](O)[C@@H](N)CO [Compound 107, sphinganine, reference compound]",47 ± 3%,38 ± 6,,IC50 ([5]; Mus musculus): 3.5 µM
"CCCCCCCCCCCCC/C=C/[C@@H](O)[C@H](CO)N(C)C [Compound 108, dimethylsphingosine, reference compound]",69 ± 2%,72 ± 3,0.77 µM and 0.8 µM,"fold more potent than sphingosine (106) ([5]; IC50, FL5.12 cells): ~5 fold"
CCCCCCCCc1ccc([C@H]2CCN[C@@H]2C)cc1 [Compound 13],,,,IC50 ([1]; 72 h): 5.1 ± 0.6 µM; IC50 [2]: 4.4 ± 0.6 µM
"CCCCCCCCc1ccc([C@H]2C[C@H](CO)N[C@H]2CO)cc1 [Compound 1, (2R,3R,5R)-2,5-bis-hydroxymethyl-3-(4-octyl)phenyl pyrrolidine]",,,,IC50 ([1]; 72 h): 7.3 ± 0.8 µM; IC50 [2]: 7 ± 0.3 µM
CCCCCCCCc1ccc(COC2CC(CO)N(C(=N)N)C2)cc1 (stereo not drawn) [Compound 133],34 ± 3%,0,17.3 µM,ability to induce vacuole formation [4]: lost
CCCCCCCCc1ccc([C@@H]2CC(=O)N[C@@H]2CO)cc1 [Compound 11],,,,IC50 ([1]; 72 h): > 20 µM; IC50 [2]: > 20 µM
CCCCCCCCc1ccc(COC2CNC(CO)C2)cc1 (stereo not drawn) [Compound 102],63 ± 3%,33 ± 2,2 µM,
CCCCCCCCc1ccc(C2CCNC2CO)cc1 (stereo not drawn) [Compound 7],,,,IC50 ([1]; 72 h): 5.3 ± 0.7 µM; IC50 [2]: 5.5 ± 0.7 µM
CCCCCCC=Cc1ccc(COC2CC(CO)N(C)C2)cc1 (stereo not drawn) [Compound 130],31 ± 4%,26 ± 2,1.9 µM,
CCCCCCC=Cc1ccc(COC2CNC(CO)C2)cc1 (stereo not drawn) [Compound 119],41 ± 3%,70 ± 1,2.4 µM,
CCCCCCCCCCCCCCc1ccc(COC2CNC(CO)C2)cc1 (stereo not drawn) [Compound 116],12 ± 3%,4 ± 2,10.5 µM,
CCCCCCCCc1ccc([C@H]2CCN(C(C)=O)[C@@H]2CO)cc1 [Compound 134],40 ± 4%,0,39.7 µM,vacuolation (in words) [4]: failed to induce vacuolation
CCCCCCC=Cc1ccc(C2CCN(C(C)=O)C2CO)cc1 (stereo not drawn) [Compound 135],40 ± 2%,2 ± 2,46.2 µM,vacuolation (in words) [4]: failed to induce vacuolation
